Results reported in US8906928B2, “Substituted pyrazolo-pyrrolo-pyridine-dione compounds” (ArQule, Inc., priority 2009, dated 2014).

tested on: MDA-MB; test: MTS assay (cell growth inhibition), MDA-MB; assay type: cell-based; conditions: MDA-MB cells, 72 hours incubation with test compound; concentration not given
Procedure: (§1) Cells were maintained at 37° C., 5% CO2 in DMEM media supplemented with 1% fetal bovine serum, penicillin/streptomycin and fungizone (Invitrogen). Cells were seeded into 96-well tissue culture plates at 3000 per well and cultured at 37° C. for 18 hours. Test compounds were dissolved and diluted to 300× in DMSO then diluted 1:40 in DMEM. Cells were incubated with test compounds for 72 hours followed by incubation with tetrazolium compound (3-(4,5-dimethylthiazol-2-yl)-5-(3-carboxymethoxyphenyl)-2-(4-sulfophenyl)-2H-tetrazolium, inner salt; MTS) and the electron coupling reagent, phenazine methosulfate (PMS) for 4 hours. […] The ability of compounds to inhibit cell growth in this assay is correlated with the reduction of dehydrogenase enzyme activity found in metabolically active cells. The measurement of the absorbance of the formazan was assessed using an ENVISION™ (Perkin Elmer) microplate reader at 492 nm. The calculated IC50 value is the concentration of the test compound that causes a 50% decrease in the absorbance.

Row | Structure (SMILES) | MTS CELL KILL DATA (% INHIBITION) MDA-MB
1 | O=C1NCCN1CCN1C(=O)c2cnc3[nH]ncc3c2C1=O [Example 6, 7-[2-(2-oxoimidazolidin-1-yl)ethyl]pyrazolo[3,4-b]pyrrolo[3,4-d]pyridine-6,8(3H,7H)-dione] | A (A = 80-100% INHIBITION)
2 | Cc1c(C)c(C)c(CN2C(=O)c3cnc4[nH]ncc4c3C2=O)c(C)c1C [Example 8, 7-(pentamethylbenzyl)pyrazolo[3,4-b]pyrrolo[3,4-d]pyridine-6,8(3H,7H)-dione] | B (B = 50-79% INHIBITION)
3 | Cc1cccc(OCCN2C(=O)c3cnc4[nH]ncc4c3C2=O)c1 [Example 13, 7-[2-(3-methylphenoxy)ethyl]pyrazolo[3,4-b]pyrrolo[3,4-d]pyridine-6,8(3H,7H)-dione] | A (A = 80-100% INHIBITION)
4 | CC(C)c1ccc(CN2C(=O)c3cnc4[nH]ncc4c3C2=O)cc1 [Example 14, 7-(4-isopropylbenzyl)pyrazolo[3,4-b]pyrrolo[3,4-d]pyridine-6,8(3H,7H)-dione] | A (A = 80-100% INHIBITION)
5 | CCCCOc1ccc(CN2C(=O)c3cnc4[nH]ncc4c3C2=O)cc1 [Example 15, 7-(4-butoxybenzyl)pyrazolo[3,4-b]pyrrolo[3,4-d]pyridine-6,8(3H,7H)-dione] | A (A = 80-100% INHIBITION)
6 | CC(C)OCCN1C(=O)c2cnc3[nH]ncc3c2C1=O [Example 16, 7-(2-isopropoxyethyl)pyrazolo[3,4-b]pyrrolo[3,4-d]pyridine-6,8(3H,7H)-dione] | B (B = 50-79% INHIBITION)
7 | CCCCN(CCCC)CCN1C(=O)c2cnc3[nH]ncc3c2C1=O [Example 18, 7-[2-(dibutylamino)ethyl]pyrazolo[3,4-b]pyrrolo[3,4-d]pyridine-6,8(3H,7H)-dione] | A (A = 80-100% INHIBITION)

tested on: NCI-H1299; test: MTS assay (cell growth inhibition), NCI-H1299; assay type: cell-based; conditions: NCI-H1299 cells, 72 hours incubation with test compound; concentration not given
Procedure: as §1

Row | Structure (SMILES) | MTS CELL KILL DATA (% INHIBITION) NCI-H1299
8 | O=C1NCCN1CCN1C(=O)c2cnc3[nH]ncc3c2C1=O [Example 6, 7-[2-(2-oxoimidazolidin-1-yl)ethyl]pyrazolo[3,4-b]pyrrolo[3,4-d]pyridine-6,8(3H,7H)-dione] | A (A = 80-100% INHIBITION)
9 | Cc1c(C)c(C)c(CN2C(=O)c3cnc4[nH]ncc4c3C2=O)c(C)c1C [Example 8, 7-(pentamethylbenzyl)pyrazolo[3,4-b]pyrrolo[3,4-d]pyridine-6,8(3H,7H)-dione] | C (C = <50% INHIBITION)
10 | Cc1cccc(OCCN2C(=O)c3cnc4[nH]ncc4c3C2=O)c1 [Example 13, 7-[2-(3-methylphenoxy)ethyl]pyrazolo[3,4-b]pyrrolo[3,4-d]pyridine-6,8(3H,7H)-dione] | B (B = 50-79% INHIBITION)
11 | CC(C)c1ccc(CN2C(=O)c3cnc4[nH]ncc4c3C2=O)cc1 [Example 14, 7-(4-isopropylbenzyl)pyrazolo[3,4-b]pyrrolo[3,4-d]pyridine-6,8(3H,7H)-dione] | C (C = <50% INHIBITION)
12 | CCCCOc1ccc(CN2C(=O)c3cnc4[nH]ncc4c3C2=O)cc1 [Example 15, 7-(4-butoxybenzyl)pyrazolo[3,4-b]pyrrolo[3,4-d]pyridine-6,8(3H,7H)-dione] | C (C = <50% INHIBITION)
13 | CC(C)OCCN1C(=O)c2cnc3[nH]ncc3c2C1=O [Example 16, 7-(2-isopropoxyethyl)pyrazolo[3,4-b]pyrrolo[3,4-d]pyridine-6,8(3H,7H)-dione] | C (C = <50% INHIBITION)
14 | CCCCN(CCCC)CCN1C(=O)c2cnc3[nH]ncc3c2C1=O [Example 18, 7-[2-(dibutylamino)ethyl]pyrazolo[3,4-b]pyrrolo[3,4-d]pyridine-6,8(3H,7H)-dione] | C (C = <50% INHIBITION)

tested on: PC-3; test: MTS assay (cell growth inhibition), PC-3; assay type: cell-based; conditions: PC-3 cells, 72 hours incubation with test compound; concentration not given
Procedure: as §1

Row | Structure (SMILES) | MTS CELL KILL DATA (% INHIBITION) PC-3
15 | O=C1NCCN1CCN1C(=O)c2cnc3[nH]ncc3c2C1=O [Example 6, 7-[2-(2-oxoimidazolidin-1-yl)ethyl]pyrazolo[3,4-b]pyrrolo[3,4-d]pyridine-6,8(3H,7H)-dione] | A (A = 80-100% INHIBITION)
16 | Cc1c(C)c(C)c(CN2C(=O)c3cnc4[nH]ncc4c3C2=O)c(C)c1C [Example 8, 7-(pentamethylbenzyl)pyrazolo[3,4-b]pyrrolo[3,4-d]pyridine-6,8(3H,7H)-dione] | A (A = 80-100% INHIBITION)
17 | Cc1cccc(OCCN2C(=O)c3cnc4[nH]ncc4c3C2=O)c1 [Example 13, 7-[2-(3-methylphenoxy)ethyl]pyrazolo[3,4-b]pyrrolo[3,4-d]pyridine-6,8(3H,7H)-dione] | A (A = 80-100% INHIBITION)
18 | CC(C)c1ccc(CN2C(=O)c3cnc4[nH]ncc4c3C2=O)cc1 [Example 14, 7-(4-isopropylbenzyl)pyrazolo[3,4-b]pyrrolo[3,4-d]pyridine-6,8(3H,7H)-dione] | A (A = 80-100% INHIBITION)
19 | CCCCOc1ccc(CN2C(=O)c3cnc4[nH]ncc4c3C2=O)cc1 [Example 15, 7-(4-butoxybenzyl)pyrazolo[3,4-b]pyrrolo[3,4-d]pyridine-6,8(3H,7H)-dione] | B (B = 50-79% INHIBITION)
20 | CC(C)OCCN1C(=O)c2cnc3[nH]ncc3c2C1=O [Example 16, 7-(2-isopropoxyethyl)pyrazolo[3,4-b]pyrrolo[3,4-d]pyridine-6,8(3H,7H)-dione] | C (C = <50% INHIBITION)
21 | CCCCN(CCCC)CCN1C(=O)c2cnc3[nH]ncc3c2C1=O [Example 18, 7-[2-(dibutylamino)ethyl]pyrazolo[3,4-b]pyrrolo[3,4-d]pyridine-6,8(3H,7H)-dione] | A (A = 80-100% INHIBITION)

tested on: DLD-1; test: MTS assay (cell growth inhibition), DLD-1; assay type: cell-based; conditions: DLD-1 cells, 72 hours incubation with test compound; concentration not given
Procedure: as §1

Row | Structure (SMILES) | MTS CELL KILL DATA (% INHIBITION) DLD-1
22 | O=C1NCCN1CCN1C(=O)c2cnc3[nH]ncc3c2C1=O [Example 6, 7-[2-(2-oxoimidazolidin-1-yl)ethyl]pyrazolo[3,4-b]pyrrolo[3,4-d]pyridine-6,8(3H,7H)-dione] | C (C = <50% INHIBITION)
23 | Cc1c(C)c(C)c(CN2C(=O)c3cnc4[nH]ncc4c3C2=O)c(C)c1C [Example 8, 7-(pentamethylbenzyl)pyrazolo[3,4-b]pyrrolo[3,4-d]pyridine-6,8(3H,7H)-dione] | C (C = <50% INHIBITION)
24 | Cc1cccc(OCCN2C(=O)c3cnc4[nH]ncc4c3C2=O)c1 [Example 13, 7-[2-(3-methylphenoxy)ethyl]pyrazolo[3,4-b]pyrrolo[3,4-d]pyridine-6,8(3H,7H)-dione] | C (C = <50% INHIBITION)
25 | CC(C)c1ccc(CN2C(=O)c3cnc4[nH]ncc4c3C2=O)cc1 [Example 14, 7-(4-isopropylbenzyl)pyrazolo[3,4-b]pyrrolo[3,4-d]pyridine-6,8(3H,7H)-dione] | C (C = <50% INHIBITION)
26 | CCCCOc1ccc(CN2C(=O)c3cnc4[nH]ncc4c3C2=O)cc1 [Example 15, 7-(4-butoxybenzyl)pyrazolo[3,4-b]pyrrolo[3,4-d]pyridine-6,8(3H,7H)-dione] | C (C = <50% INHIBITION)
27 | CC(C)OCCN1C(=O)c2cnc3[nH]ncc3c2C1=O [Example 16, 7-(2-isopropoxyethyl)pyrazolo[3,4-b]pyrrolo[3,4-d]pyridine-6,8(3H,7H)-dione] | C (C = <50% INHIBITION)
28 | CCCCN(CCCC)CCN1C(=O)c2cnc3[nH]ncc3c2C1=O [Example 18, 7-[2-(dibutylamino)ethyl]pyrazolo[3,4-b]pyrrolo[3,4-d]pyridine-6,8(3H,7H)-dione] | C (C = <50% INHIBITION)

tested on: Kato III; test: MTS assay (cell growth inhibition), Kato III; assay type: cell-based; conditions: Kato III cells, 72 hours incubation with test compound; concentration not given
Procedure: as §1

Row | Structure (SMILES) | MTS CELL KILL DATA (% INHIBITION) Kato III
29 | O=C1NCCN1CCN1C(=O)c2cnc3[nH]ncc3c2C1=O [Example 6, 7-[2-(2-oxoimidazolidin-1-yl)ethyl]pyrazolo[3,4-b]pyrrolo[3,4-d]pyridine-6,8(3H,7H)-dione] | A (A = 80-100% INHIBITION)
30 | Cc1c(C)c(C)c(CN2C(=O)c3cnc4[nH]ncc4c3C2=O)c(C)c1C [Example 8, 7-(pentamethylbenzyl)pyrazolo[3,4-b]pyrrolo[3,4-d]pyridine-6,8(3H,7H)-dione] | C (C = <50% INHIBITION)
31 | Cc1cccc(OCCN2C(=O)c3cnc4[nH]ncc4c3C2=O)c1 [Example 13, 7-[2-(3-methylphenoxy)ethyl]pyrazolo[3,4-b]pyrrolo[3,4-d]pyridine-6,8(3H,7H)-dione] | A (A = 80-100% INHIBITION)
32 | CC(C)c1ccc(CN2C(=O)c3cnc4[nH]ncc4c3C2=O)cc1 [Example 14, 7-(4-isopropylbenzyl)pyrazolo[3,4-b]pyrrolo[3,4-d]pyridine-6,8(3H,7H)-dione] | B (B = 50-79% INHIBITION)
33 | CCCCOc1ccc(CN2C(=O)c3cnc4[nH]ncc4c3C2=O)cc1 [Example 15, 7-(4-butoxybenzyl)pyrazolo[3,4-b]pyrrolo[3,4-d]pyridine-6,8(3H,7H)-dione] | C (C = <50% INHIBITION)
34 | CC(C)OCCN1C(=O)c2cnc3[nH]ncc3c2C1=O [Example 16, 7-(2-isopropoxyethyl)pyrazolo[3,4-b]pyrrolo[3,4-d]pyridine-6,8(3H,7H)-dione] | C (C = <50% INHIBITION)
35 | CCCCN(CCCC)CCN1C(=O)c2cnc3[nH]ncc3c2C1=O [Example 18, 7-[2-(dibutylamino)ethyl]pyrazolo[3,4-b]pyrrolo[3,4-d]pyridine-6,8(3H,7H)-dione] | C (C = <50% INHIBITION)

tested on: PACA-2; test: MTS assay (cell growth inhibition), PACA-2; assay type: cell-based; conditions: PACA-2 cells, 72 hours incubation with test compound; concentration not given
Procedure: as §1

Row | Structure (SMILES) | MTS CELL KILL DATA (% INHIBITION) PACA-2
36 | O=C1NCCN1CCN1C(=O)c2cnc3[nH]ncc3c2C1=O [Example 6, 7-[2-(2-oxoimidazolidin-1-yl)ethyl]pyrazolo[3,4-b]pyrrolo[3,4-d]pyridine-6,8(3H,7H)-dione] | C (C = <50% INHIBITION)
37 | Cc1c(C)c(C)c(CN2C(=O)c3cnc4[nH]ncc4c3C2=O)c(C)c1C [Example 8, 7-(pentamethylbenzyl)pyrazolo[3,4-b]pyrrolo[3,4-d]pyridine-6,8(3H,7H)-dione] | C (C = <50% INHIBITION)
38 | Cc1cccc(OCCN2C(=O)c3cnc4[nH]ncc4c3C2=O)c1 [Example 13, 7-[2-(3-methylphenoxy)ethyl]pyrazolo[3,4-b]pyrrolo[3,4-d]pyridine-6,8(3H,7H)-dione] | C (C = <50% INHIBITION)
39 | CC(C)c1ccc(CN2C(=O)c3cnc4[nH]ncc4c3C2=O)cc1 [Example 14, 7-(4-isopropylbenzyl)pyrazolo[3,4-b]pyrrolo[3,4-d]pyridine-6,8(3H,7H)-dione] | C (C = <50% INHIBITION)
40 | CCCCOc1ccc(CN2C(=O)c3cnc4[nH]ncc4c3C2=O)cc1 [Example 15, 7-(4-butoxybenzyl)pyrazolo[3,4-b]pyrrolo[3,4-d]pyridine-6,8(3H,7H)-dione] | C (C = <50% INHIBITION)
41 | CC(C)OCCN1C(=O)c2cnc3[nH]ncc3c2C1=O [Example 16, 7-(2-isopropoxyethyl)pyrazolo[3,4-b]pyrrolo[3,4-d]pyridine-6,8(3H,7H)-dione] | B (B = 50-79% INHIBITION)
42 | CCCCN(CCCC)CCN1C(=O)c2cnc3[nH]ncc3c2C1=O [Example 18, 7-[2-(dibutylamino)ethyl]pyrazolo[3,4-b]pyrrolo[3,4-d]pyridine-6,8(3H,7H)-dione] | C (C = <50% INHIBITION)
